Columns and labels:
Assay type in all cases: in vivo
normal (wild type) mice = assay: Wild type mice treated alongside the G6PC−/− model (Example 12); conditions: wild type (wt) mice
Protocol: (§1) Compound 2 was tested in a G6PC−/−mouse model of GSD Ia. Daily injection of 0.1 to 0.2 mL 10% dextrose subcutaneously was initiated within 3 days of age for G6PC−/−mice. All G6PC−/−mice continued to receive daily dextrose injections during this time. Blood was collected at time of euthanasia, when tissues were collected. Two groups of 4 G6PC−/−mice (1 group treated with Compound 2, 1 group treated with vehicle) were analyzed to identify statistically significant differences between Compound 2-treated and vehicle-treated controls. We also treated 2 groups of 3 normal (wild type) mice, one with Compound 2 and one with vehicle.
(§2) Initially the GSD Ia mice were treated with Compound 2 from 5 to 10 days of age. Body mass, liver mass, liver glycogen concentration, liver triglycerides, fasting serum glucose, fasting serum triglycerides, and GSD-related cell signaling pathways were examined. Similarly, groups of GSD Ia mice were treated with vehicle for 5 days to serve as mock-treated controls for all assays. Groups of 3-4 mice were evaluated. GSD Ia mice were treated for >7 days to assess survival and longer-term effects of Compound 2 as described above (GSD Ia mice rarely survive >12 days of life without a therapeutic intervention). Metabolomic analysis of hepatic extracts were performed as described (Sinha, Farah et al. (2013), Hepatology 59(4):1366-80). Acylcarnitine and amino acid profiling were employed to detect any changes related to increased lipolysis and fatty acid beta-oxidation as described by Sinha et al. (Sinha, Farah et al. (2013), Hepatology 59(4):1366-80). […] Mean liver triglyceride content was reduced by more than 60% in Compound 2-treated animals relative to vehicle-treated control animals, while average liver weight was reduced by more than 30% vs. controls. Importantly, average liver weight as a percent of total body weight also declined by approximately 20% in treated vs. control animals. Further, treatment with Compound 2 led to statistically significant reductions in key metabolic markers of GSD Ia.

beagle dogs = assay: Compound 2 dosing study in dogs: plasma cholesterol; conditions: for average reduction of total plasma cholesterol levels: Day 15, from baseline
Protocol: Compound 2 Dosing Study in Dogs: The objective of the study was to determine the effects of oral administration of Compound 2 once-daily for 14 days followed by alternate day dosing for 14 days on plasma cholesterol levels and indicators of thyroid function in beagle dogs. Compound 2 was formulated with Lutrol F68 NF (Poloxomer 188) and carboxymethylcellulose (CMC; sodium salt/high viscosity) and was administered as a suspension in 0.5% CMC/1% Lutrol in deionized water. […] At the end of the treatment cycle (Cycle 1), the dogs were washed out for 4 weeks and then entered into a second 14-day treatment cycle. Cycle 2 employed the same dosing paradigm as Cycle 1, but animals were randomized to Cycle 2 in such a way that the combined dosing groups from the two cycles consisted of 4 different animals (2 males, 2 females) each. At the conclusion of Cycle 2, dosing was continued on alternate days for an additional 14-day period (Cycle 2 Extension). Blood samples were collected at baseline and appropriate time intervals thereafter and analyzed for total plasma cholesterol levels, serum levels of total T4 (tT4), free T4 (fT4), total T3 (tT3), free T3 (fT3), and thyroid stimulating hormone (TSH).

G6PC−/− mice = assay: G6PC−/− mouse model of GSD Ia (Example 12)
Protocol: as §1, §2

SMILES: Cc1cc(OCP2(=O)OCCC(c3cccc(Cl)c3)O2)cc(C)c1Cc1ccc(O)c(C(C)C)c1 (centres unmarked) [Compound 2]
- body mass (normal (wild type) mice; vs vehicle-treated controls (FIG. 15)): reduced
- liver mass (normal (wild type) mice; vs vehicle-treated controls (FIG. 16)): reduced
- liver mass as a percentage of body mass (normal (wild type) mice; vs vehicle-treated controls (FIG. 17)): reduced
- liver glycogen levels (normal (wild type) mice; vs vehicle-treated controls (FIG. 18)): significantly reduced
- serum triglycerides (normal (wild type) mice; vs vehicle-treated controls (FIG. 19)): somewhat enhanced
- liver triglyceride concentrations (normal (wild type) mice; vs vehicle-treated controls (FIG. 20)): reduced
- total liver triglycerides (normal (wild type) mice; vs vehicle-treated controls (FIG. 21)): reduced
- effects on total plasma cholesterol levels (beagle dogs; 0.1 mg/kg/day oral once-daily): minimal effects
- average reduction of total plasma cholesterol levels from baseline (beagle dogs; Day 15, 0.3 mg/kg/day oral once-daily for 14 days): ~22%
- average reduction of total plasma cholesterol levels from baseline (beagle dogs; Day 15, 10 mg/kg/day oral once-daily for 14 days): ~47%
- average reduction of total plasma cholesterol levels (beagle dogs; 0.3 mg/kg/day oral once-daily for 14 days): ~28 mg/dL
- average reduction of total plasma cholesterol levels (beagle dogs; 10 mg/kg/day oral once-daily for 14 days): ~71 mg/dL
- total plasma cholesterol levels relative to vehicle-treated animals (beagle dogs; alternate day dosing for 14 days (Cycle 2 Extension)): remained reduced relative to vehicle-treated animals to a similar or greater extent than observed after once-daily dosing
- average liver weight reduced (G6PC−/− mice; Compound 2-treated vs controls): more than 30%
- mean liver triglyceride content reduced (G6PC−/− mice; Compound 2-treated vs vehicle-treated control animals): more than 60%
- body mass (G6PC−/− mice; G6PC−/− mice, vs vehicle-treated controls (FIG. 15)): reduced
- liver mass (G6PC−/− mice; G6PC−/− mice, vs vehicle-treated controls (FIG. 16)): reduced
- liver mass as a percentage of body mass (G6PC−/− mice; G6PC−/− mice, vs vehicle-treated controls (FIG. 17)): reduced
- liver glycogen levels (G6PC−/− mice; G6PC−/− mice, vs vehicle-treated controls (FIG. 18)): somewhat enhanced
- serum triglycerides (G6PC−/− mice; G6PC−/− mice, vs vehicle-treated controls (FIG. 19)): somewhat enhanced
- liver triglyceride concentrations (G6PC−/− mice; G6PC−/− mice, vs vehicle-treated controls (FIG. 20)): reduced
- total liver triglycerides (G6PC−/− mice; G6PC−/− mice, vs vehicle-treated controls (FIG. 21)): reduced
- average liver weight as a percent of total body weight declined (G6PC−/− mice; treated vs control animals): approximately 20%
